Experimental data as given in paper PMC6267684, “Pharmacokinetic evaluation of the PNC disassembler metarrestin in wild-type and Pdx1-Cre;LSL-Kras^G12D/+;Tp53^R172H/+ (KPC) mice, a genetically engineered model of pancreatic cancer” (Cancer Chemotherapy and Pharmacology, 2018).

Key:
[1] = Preliminary toxicity profile, 25 mg/kg PO gavage for 14 days; settings: for ALP (alkaline phosphatase) / ALT (alanine transaminase) / AST (aspartate transaminase): in U/L (unit assumed); for Weight: in g (unit assumed)
FOXO6 mRNA = FOXO6 mRNA expression in KPC tumors (RNA-seq, qRT-PCR); format: in vivo, KPC mice; settings: vs intratumor exposure
Protocol: Pancreas cancer tissues samples or adjacent, uninvolved normal pancreas from vehicle or metarrestin-treated KPC animals collected at 0, 3, and 9 h after last dose of 25 mg/kg metarrestin were homogenized in PureLink Lysis Buffer (PureLink RNA Mini Kit, ThermoFisher Scientific Waltham, MA) at 4 °C using a TissueLyser II bead mill (Qiagen, Valencia, CA, manufactured by Retsch, Newtown, PA). Total RNA was isolated using the Life Technologies PureLink® RNA Mini Kit, quantified on a NanoDrop 1000 spectrophotometer (ThermoFisher Scientific, Waltham, MA). […]
Total RNA libraries were prepared using the Illumina TruSeq® Stranded Total RNA LT (with Ribo-Zero™Human/Mouse/Rat) kit according the manufacturer’s instructions. […] Sequencing output ranged from 89 to 132 million reads per sample. Adapter trimming and base filtering was done using Trimmomatic software version 0.3, and the trimmed reads were aligned to mouse reference genome (GRCm38/mm10) and Ensembl annotation (version 70) using TopHat2 version 2.0.8.
A total of 450 ng of total RNA was used for single-strand complementary DNA synthesis using a SuperScript III First-Strand kit (Invitrogen, Carlsbad, CA). […] Reaction products were read in a Bio-Rad CFX96 Touch real-time PCR detection system (Bio-Rad Laboratories, Hercules, CA). […]

KPC and PC3M cells = test: UPLC–MS/MS measurement of cellular metarrestin concentration; format: cell-based; settings: 1 and 10 µM, within 40 min
[2] = females, 25 mg/kg, 14 days, in g/dL (unit assumed)
[3] = females, N=10, 25 mg/kg, number of animals
[4] = males, N=10, 25 mg/kg, number of animals

N=c1c2c(-c3ccccc3)c(-c3ccccc3)n(Cc3ccccc3)c2ncn1[C@H]1CC[C@H](O)CC1 [metarrestin, Trans-4-(7-benzyl-4-imino-5,6-diphenyl-4,7-dihydro-3H-pyrrolo[2,3-d]pyrimidin-3-yl) cyclohexanol]
body weight, hypoactivity, liver function tests compared to vehicle controls ([1]; daily 25 mg/kg by oral gavage for 14 days): not associated with any change in body weight, hypoactivity, or change in liver function tests
CHOL (cholesterol) ([1]; females, 25 mg/kg, 14 days): 123 ± 18.4
LD (lactate dehydrogenase) ([1]; females, 25 mg/kg, 14 days): 495 ± 89.7
ALP (alkaline phosphatase) ([1]; females, 25 mg/kg, 14 days): 136 ± 13.8
ALT (alanine transaminase) ([1]; females, 25 mg/kg, 14 days): 100 ± 47.6
AST (aspartate transaminase) ([1]; females, 25 mg/kg, 14 days): 100 ± 28.3
GLOB (globulin) [1, 2]: 2.1 ± 0.13
TP (total protein) [1, 2]: 5.2 ± 0.21
Weight ([1]; females, Day 1, 25 mg/kg): 23.1 ± 1.55
Weight Change ([1]; females, Day 1 to 4, 25 mg/kg): 0.0 ± 0.80
Weight Change ([1]; females, Day 1 to 15, 25 mg/kg): 2.7 ± 1.04
Weight Change ([1]; females, Day 4 to 7, 25 mg/kg): 1.2 ±0.67
Weight ([1]; females, Day 7, 25 mg/kg): 24.3 ± 1.32
Weight ([1]; females, Day 15, 25 mg/kg): 25.8 ± 1.70
Death [1, 3]: 0
Rough coat [1, 3]: 0
Scant feces [1, 3]: 0
CRE (creatinine) ([1]; males, 25 mg/kg, 14 days): 0.09 ± 0.015
P04 (phosphorus) ([1]; males, 25 mg/kg, 14 days): 10.2 ± 0.50
ALP (alkaline phosphatase) ([1]; males, 25 mg/kg, 14 days): 84 ± 13.5
ALT (alanine transaminase) ([1]; males, 25 mg/kg, 14 days): 137 ± 67.4
AST (aspartate transaminase) ([1]; males, 25 mg/kg, 14 days): 88 ± 24.3
K (potassium) ([1]; males, 25 mg/kg, 14 days, in mmol/L (unit assumed)): 7.3 ± 0.21
Weight ([1]; males, Day 1, 25 mg/kg): 31.4 ± 1.38
Weight Change ([1]; males, Day 1 to 4, 25 mg/kg): 1.1 ± 0.90
Weight Change ([1]; males, Day 1 to 15, 25 mg/kg): 3.1 ± 1.51
Weight Change ([1]; males, Day 4 to 7, 25 mg/kg): 0.9 ± 0.59
Weight ([1]; males, Day 7, 25 mg/kg): 33.3 ± 2.02
Weight ([1]; males, Day 15, 25 mg/kg): 34.4 ± 2.33
Cold to touch [1, 4]: 0
Death [1, 4]: 0
Hypoactivity [1, 4]: 0
Rough coat [1, 4]: 6
Scant feces [1, 4]: 0
Thin [1, 4]: 0
FOXO6 mRNA expression in KPC tumors (FOXO6 mRNA): Dose-dependent normalization
cellular levels, % of media concentrations (KPC and PC3M cells): 40–100%
